Experiments:
Format in all cases: cell-based, human
HepG2 cancer cell line = assay: Cell viability assay (MTT), antiproliferative screening; conditions: FIGS. 1A-1C
Method: Cells (HepG2) were provided from the American Type Culture Collection (ATCC) unless otherwise stated. Cells were grown in ATCC-formulated specific DMEM/F12 medium for each cell line with supplements of 5% fetal bovine serum, 10 U/ml penicillin, 10 μg/ml streptomycin, and 4% glutamine. All cell lines were placed in a humidified incubator a 37° C. in an atmosphere of 5% CO2 and 95% air. Cells were cultured into two groups. One as control cells and the other as cell lines treated for one day (3-prenyl 5-methyl ether, 7-O-rhamnoside-treated cells).
The cell viability will be tested using MTT. […] The culture supernatant was removed, the remaining MTT formazan crystals was dissolved in 400 μL of DMSO, and the absorbance was measured at 570 nm using an ELISA micro-plate reader (Bio-Tek Instruments, Winooski, VT, USA). The effect of 3-prenyl 5-methyl ether, 7-O-rhamnoside on cell viability was assessed as the percentage of viable cells compared with the vehicle-treated control cells, which were arbitrarily designated as 100%.
The cells were treated with increasing concentrations of 3-prenyl 5-methyl ether, 7-O-rhamnoside, (0-5, 10, 15, 20 and 25 μmol/mL for 24,48 and 72 h. The viability was assessed using the MTT assay. Values are mean±SD of three independent experiments. (p<0.01 compared untreated cells).

HepG2 cells [1] = assay: Migration assay (wound closure); conditions: non-cytotoxic concentrations, 24 hours, FIGS. 2A-2B
Method: (§1) During the metastatic cascade of carcinomas, tumor migration and invasion is the first and most important steps. It involves profound changes in cell adhesion, allowing tumour cells to dissociate and migrate from the primary site. […] Several essential steps of metastasis, including migration (FIGS. 2A-2B) invasion (FIG. 3A-3B) of human liver cancer cells, are inhibited by the 3-prenyl 5-methyl ether, 7-O-rhamnoside.
(§2) The migration and invasion assays were conducted by photographing the cells that migrated the membrane (200× magnification). As illustrated in FIGS. 2A-2B HepG2 cells were treated with 3-prenyl 5-methyl ether, 7-O-rhamnoside at indicated doses for 24 hours. The percentage inhibition of migrating cells was quantified and expressed based on untreated cells (control) represented 100%. The migration was determined by the areas of the wound closure calculated from three microscopic fields per sample.

HepG2 cells [2] = assay: Invasion assay; conditions: non-cytotoxic concentrations, FIGS. 3A-3B
Method: as §1, §2
As illustrated in FIGS. 3A-3B, invasiveness was determined by counting cells in three microscopic fields per sample. The inhibitory percentage of invading cells was quantified and expressed with untreated cells (control) representing 100%. Values are mean±SD of three independent experiments. (p<0.01 compared untreated cells).

With `COc1cc(OC2OC(C)C(O)C(O)C2O)cc2oc(-c3ccc(O)cc3)c(CC=C(C)C)c(=O)c12` (stereo not shown) [3-prenyl 5-methyl ether, 7-O-rhamnoside, apigenin 3-prenyl 5-methyl ether, 7-O-rhamnoside] the “cytotoxicity for the HepG2 cancer cell line (cell viability, MTT)” value (HepG2 cancer cell line; 0, 5, 10, 15, 20 and 25 μmol, 24, 48 and 72 hrs) was “potentially cytotoxic”, the “dose-dependent potentiation / enhancement of anti-proliferative effects” value (HepG2 cancer cell line; seen at both 15 and 20 μmol) was “Potentiation” and the “migration of human liver cancer cells” value (HepG2 cells [1]) was “inhibited”. The “invasion of human liver cancer cells” value (HepG2 cells [2]) was “inhibited”.

Source: patent publication US12144821B1, “Selective 3-prenyl 5-methyl ether, 7-o-rhamnoside flavone for the treatment of hepatic cancer” (KING FAISAL UNIVERSITY, priority 2024, dated 2024)
